{"source": "ChEMBL document CHEMBL5046281", "about": "“N-Aryl Mercaptopropionamides as Broad-Spectrum Inhibitors of Metallo-β-Lactamases” (J Med Chem, 2022)", "key": {"Escherichia coli [1]": {"tested_on": "Escherichia coli", "assay": "Potentiation of imipenem-induced antibacterial activity against NDM-7 producing Escherichia coli T2239 clinical isolates assessed as imipenem MIC at 128 mg/l by microdilution method", "assay_type": "functional"}, "Pseudomonas aeruginosa [2]": {"tested_on": "Pseudomonas aeruginosa", "assay": "Inhibition of Pseudomonas aeruginosa quorum sensing system LasB at 100 uM"}, "Klebsiella pneumoniae [3]": {"tested_on": "Klebsiella pneumoniae", "assay": "Selectivity ratio of MIC for antibacterial activity against NDM-1 producing Klebsiella pneumoniae T2301 clinical isolates to MIC for potentiation of imipenem-induced antibacterial activity against NDM-1 producing Klebsiella pneumoniae T2301 clinical isolates assessed as imipenem MIC at 128 mg/l"}, "[4]": {"assay": "Selectivity ratio of MIC for antibacterial activity against NDM-7 producing Escherichia coli T2239 clinical isolates to MIC for potentiation of imipenem-induced antibacterial activity against NDM-7 producing Escherichia coli T2239 clinical isolates assessed as imipenem MIC at 128 mg/l", "assay_type": "functional"}, "A549": {"tested_on": "A549", "assay": "Cytotoxicity against human A549 cells assessed as reduction in cell viability at 100 uM relative to control", "assay_type": "toxicity, cell-based", "details": "a549, 100 µM"}, "Escherichia coli [5]": {"tested_on": "Escherichia coli", "assay": "Potentiation of imipenem-induced antibacterial activity against NDM-1 producing Escherichia coli assessed as fold change in imipenem MIC at 4 ug/ml by microdilution method", "assay_type": "functional", "details": "dose 4 µg/ml"}, "Escherichia coli [6]": {"tested_on": "Escherichia coli", "assay": "Antibacterial activity against NDM-1 expressing Escherichia coli isolates assessed as inhibition of bacterial growth by microdilution method", "assay_type": "functional, organism-based"}, "[7]": {"biological_target": "Stromelysin-1 (Homo sapiens) (UniProt P08254)", "sequence (P08254 100-477 limits assumed)": "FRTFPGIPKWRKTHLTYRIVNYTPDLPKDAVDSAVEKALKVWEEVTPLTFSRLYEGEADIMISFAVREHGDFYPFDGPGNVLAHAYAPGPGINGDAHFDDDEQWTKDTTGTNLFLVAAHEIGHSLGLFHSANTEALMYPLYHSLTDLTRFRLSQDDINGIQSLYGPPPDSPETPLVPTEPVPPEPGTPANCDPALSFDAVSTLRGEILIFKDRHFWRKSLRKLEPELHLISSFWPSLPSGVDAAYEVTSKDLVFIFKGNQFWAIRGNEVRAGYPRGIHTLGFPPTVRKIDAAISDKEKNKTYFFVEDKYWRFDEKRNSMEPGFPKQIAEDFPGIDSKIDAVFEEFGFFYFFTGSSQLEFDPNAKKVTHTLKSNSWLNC", "assay": "Inhibition of human MMP-3 at 100 uM relative to control"}, "[8]": {"biological_target": "T1, Matrilysin (Homo sapiens) (UniProt P09237)", "T1 sequence (whole entry)": "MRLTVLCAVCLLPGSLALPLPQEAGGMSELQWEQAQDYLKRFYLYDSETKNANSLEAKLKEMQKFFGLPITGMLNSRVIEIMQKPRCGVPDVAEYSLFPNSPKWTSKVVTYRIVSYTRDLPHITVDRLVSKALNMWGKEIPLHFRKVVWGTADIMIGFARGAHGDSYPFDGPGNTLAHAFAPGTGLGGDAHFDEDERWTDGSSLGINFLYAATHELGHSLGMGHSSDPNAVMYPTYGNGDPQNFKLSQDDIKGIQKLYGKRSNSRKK", "assay": "Inhibition of human MMP-7 at 100 uM relative to control"}, "Serratia marcescens": {"tested_on": "Serratia marcescens", "assay": "Potentiation of imipenem-induced antibacterial activity against NDM-1 producing Serratia marcescens T2352 clinical isolates assessed as imipenem MIC at 128 mg/l by microdilution method", "assay_type": "functional"}, "Escherichia coli [9]": {"tested_on": "Escherichia coli", "assay": "Potentiation of imipenem-induced antibacterial activity against NDM-1 producing Escherichia coli assessed as imipenem MIC at 2 ug/ml by microdilution method (reference value: 128 ug/ml)", "assay_type": "functional", "details": "dose 2 µg/ml"}, "Escherichia coli [10]": {"tested_on": "Escherichia coli", "assay": "Potentiation of imipenem-induced antibacterial activity against NDM-1 producing Escherichia coli assessed as imipenem MIC at 8 ug/ml by microdilution method (reference value: 128 ug/ml)", "assay_type": "functional", "details": "dose 8 µg/ml"}, "Enterobacter cloacae": {"tested_on": "Enterobacter cloacae", "assay": "Potentiation of imipenem-induced antibacterial activity against VIM-1 producing Enterobacter cloacae T2353 clinical isolates assessed as imipenem MIC at 128 mg/l by microdilution method", "assay_type": "functional"}, "[11]": {"assay": "Inhibition of Escherichia coli IMP-7 using fluorocillin as substrate incubated for 30 mins by fluorescence based assay"}, "[12]": {"biological_target": "Matrix metalloproteinase-14 (Homo sapiens, UniProt P50281)", "assay": "Inhibition of human MMP-14 at 100 uM relative to control"}, "Pseudomonas aeruginosa [13]": {"tested_on": "Pseudomonas aeruginosa", "assay": "Antibacterial activity against VIM-2 expressing Pseudomonas aeruginosa isolates assessed as inhibition of bacterial growth by microdilution method", "assay_type": "functional, organism-based"}, "[14]": {"assay": "Selectivity ratio of MIC for antibacterial activity against KPC-2 producing Escherichia coli T2435 clinical isolates to MIC for potentiation of imipenem-induced antibacterial activity against KPC-2 producing Escherichia coli T2435 clinical isolates assessed as imipenem MIC at 128 mg/l", "assay_type": "functional"}, "Escherichia coli [15]": {"tested_on": "Escherichia coli", "assay": "Potentiation of imipenem-induced antibacterial activity against NDM-1 producing Escherichia coli assessed as fold change in imipenem MIC at 64 ug/ml by microdilution method", "assay_type": "functional", "details": "dose 64 µg/ml"}, "[16]": {"assay": "Selectivity ratio of MIC for antibacterial activity against VIM-1 producing Pseudomonas aeruginosa T2357 clinical isolates to MIC for potentiation of imipenem-induced antibacterial activity against VIM-1 producing Pseudomonas aeruginosa T2357 clinical isolates assessed as imipenem MIC at 128 mg/l", "assay_type": "functional"}, "[17]": {"assay": "Selectivity ratio of MIC for antibacterial activity against VIM-1 producing Enterobacter cloacae T2353 clinical isolates to MIC for potentiation of imipenem-induced antibacterial activity against VIM-1 producing Enterobacter cloacae T2353 clinical isolates assessed as imipenem MIC at 128 mg/l", "assay_type": "functional"}, "[18]": {"biological_target": "Neutrophil collagenase (Homo sapiens) (UniProt P22894)", "sequence (P22894 101-467 limits assumed)": "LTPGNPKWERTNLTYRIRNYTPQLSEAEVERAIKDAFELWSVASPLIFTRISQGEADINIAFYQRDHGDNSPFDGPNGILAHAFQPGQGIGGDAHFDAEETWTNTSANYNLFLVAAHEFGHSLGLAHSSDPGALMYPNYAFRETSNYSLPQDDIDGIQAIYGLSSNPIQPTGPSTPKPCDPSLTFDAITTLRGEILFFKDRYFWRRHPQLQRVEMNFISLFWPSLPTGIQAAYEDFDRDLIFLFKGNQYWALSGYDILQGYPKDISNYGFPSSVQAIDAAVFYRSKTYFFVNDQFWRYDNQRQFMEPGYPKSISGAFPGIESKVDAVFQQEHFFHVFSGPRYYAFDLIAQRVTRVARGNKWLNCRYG", "assay": "Inhibition of human MMP-8 at 100 uM relative to control"}, "Klebsiella pneumoniae [19]": {"tested_on": "Klebsiella pneumoniae", "assay": "Synergistic antibacterial activity against NDM-1-producing Klebsiella pneumoniae T2301 clinical isolate assessed as fractional inhibitory concentration index in presence of imipenem by microdilution checkerboard assay", "assay_type": "functional"}, "Klebsiella pneumoniae [20]": {"tested_on": "Klebsiella pneumoniae", "assay": "Antibacterial activity against imipenem-resistant NDM-1-producing Klebsiella pneumoniae T2301 at 128 mg/L measured after 24 hrs in presence of imipenem by time-kill assay", "assay_type": "functional, organism-based"}, "Escherichia coli [21]": {"tested_on": "Escherichia coli", "assay": "Potentiation of imipenem-induced antibacterial activity against NDM-5 producing Escherichia coli T2351 clinical isolates assessed as imipenem MIC at 128 mg/l by microdilution method", "assay_type": "functional"}, "Escherichia coli [22]": {"tested_on": "Escherichia coli", "assay": "Potentiation of imipenem-induced antibacterial activity against NDM-1 producing Escherichia coli assessed as imipenem MIC at 16 ug/ml by microdilution method (reference value: 128 ug/ml)", "assay_type": "functional", "details": "dose 16 µg/ml"}, "Klebsiella pneumoniae [23]": {"tested_on": "Klebsiella pneumoniae", "assay": "Antibacterial activity against imipenem-resistant NDM-1-producing Klebsiella pneumoniae T2301 infected in Galleria mellonella larvae assessed as survival rate at 38.4 ug injected via proleg measured after 3 days in presence of imipenem by Kaplan-Meier method", "assay_type": "functional", "details": "dose 38.4 µg; time 3 day"}, "Escherichia coli [24]": {"tested_on": "Escherichia coli", "assay": "Potentiation of imipenem-induced antibacterial activity against NDM-1 producing Escherichia coli assessed as imipenem MIC at 128 ug/ml by microdilution method (reference value: 128 ug/ml)", "assay_type": "functional", "details": "dose 128 µg/ml"}}, "note": "pIC50: −log10 of the molar value. Calls of active or inactive are those of the source. The rule behind the calls is not given here.", "data": [{"smiles": "O=C(CCS)Nc1cccc(C(=O)O)c1", "values": [{"measurement": "MIC", "setting": "Escherichia coli [1]", "result": 2, "unit": "µg/mL"}, {"measurement": "inhibition", "setting": "Pseudomonas aeruginosa [2]", "result": "Active"}, {"measurement": "Ratio", "setting": "Klebsiella pneumoniae [3]", "result": 32}, {"measurement": "Ratio", "setting": "[4]", "result": 16}, {"measurement": "Activity", "setting": "A549", "result": "< 10", "unit": "%"}, {"measurement": "fold change (FC)", "setting": "Escherichia coli [5]", "result": 1}, {"measurement": "Activity", "setting": "Escherichia coli [6]", "result": "inactive"}, {"measurement": "inhibition", "setting": "[7]", "result": "< 10", "unit": "%"}, {"measurement": "inhibition", "setting": "[8]", "result": "< 10", "unit": "%"}, {"measurement": "MIC", "setting": "Serratia marcescens", "result": 4, "unit": "µg/mL"}, {"measurement": "MIC", "setting": "Escherichia coli [9]", "result": 128, "unit": "µg/mL"}, {"measurement": "MIC", "setting": "Escherichia coli [10]", "result": 64, "unit": "µg/mL"}, {"measurement": "MIC", "setting": "Enterobacter cloacae", "result": 2, "unit": "µg/mL"}, {"measurement": "pIC50", "setting": "[11]", "result": 5.19}, {"measurement": "inhibition", "setting": "[12]", "result": 61, "unit": "%"}, {"measurement": "Activity", "setting": "Pseudomonas aeruginosa [13]", "result": "inactive"}, {"measurement": "Ratio", "setting": "[14]", "result": 1}, {"measurement": "fold change (FC)", "setting": "Escherichia coli [15]", "result": 64}, {"measurement": "Ratio", "setting": "[16]", "result": 1}, {"measurement": "Ratio", "setting": "[17]", "result": 2}, {"measurement": "inhibition", "setting": "[18]", "result": "< 10", "unit": "%"}, {"measurement": "fractional inhibitory concentration index (FICI)", "setting": "Klebsiella pneumoniae [19]", "result": 0.25}, {"measurement": "Activity", "setting": "Klebsiella pneumoniae [20]", "result": "Active"}, {"measurement": "MIC", "setting": "Escherichia coli [21]", "result": 2, "unit": "µg/mL"}, {"measurement": "MIC", "setting": "Escherichia coli [22]", "result": 64, "unit": "µg/mL"}, {"measurement": "Activity", "setting": "Klebsiella pneumoniae [23]", "result": "<=56%"}, {"measurement": "MIC", "setting": "Escherichia coli [24]", "result": "≤ 0.5", "unit": "µg/mL"}]}]}
